Results published in patent US10335446B2, “Methods of treating diseases using grape proteins” (priority 2015, dated 2019).
Where “and” joins values, the source holds several entries; their conditions need not be identical. Identical values can stand only once. Like-named read-outs stand apart in the source and are kept apart here. Marks after values point to notes of the source that are not given here.

What was measured:
Molt-4-luc leukemia = format: in vivo
Experimental: Temperature and relative humidity were monitored daily.
The tumor cells were routinely subcultured twice weekly.
Whole body and metastatic bioluminescence were measured and recorded.
Tumor growth curve was plotted with median relative bioluminescence.

[1] = format: in vivo, female BALB/c nude mice
Experimental: At the time of routine monitoring, the animals were daily checked for any effects of tumor growth and treatments on normal behavior such as mobility, food and water consumption (by looking only), body weight gain/loss (body weights were measured twice weekly), eye/hair matting and any other abnormal effect as stated in the protocol. Death and observed clinical signs were recorded on the basis of the numbers of animals within each subset.
Animal body weight was monitored regularly as an indirect measure of toxicity (FIG. 54A-B). No group lost weight as a result of test article administration, except the prophylactic KHGD Group 4 which was found with sign of emaciation and dehydration due to the 3 days' whole-day supply of KHGD.

[2] = tested on: MDA-MB-436 human breast cancer; experiment: Subcutaneous MDA-MB-436 human breast cancer xenograft model, tumor volume and weight; format: in vivo, female BALB/c nude mice
Experimental: The in vivo anti-tumor efficacy of KHJ, KH103, and KHGD in the subcutaneous MDA-MB-436 human breast cancer model in female BALB/c nude mice was evaluated.
The animals used were of the species Mus musculus, strain BALB/c nude, age 6-8 weeks, and female. The body weight was 18-22 g. The number of animals was 90 mice, plus spare. The animal supplier was Shanghai BK Laboratory Animal Co., LTD.
The tumor cells were routinely subcultured twice weekly by trypsin-EDTA treatment.
Each mouse was inoculated subcutaneously at the right flank with MDA-MB-436 tumor cells (1×10^7) in 0.1 ml of PBS supplemented with BD Matrigel (1:1) for tumor development. The prophylactic treatments were started 13 days before inoculation. The therapeutic treatments were started on day 9 after tumor inoculation when the average tumor size reached approximately 81 mm^3. Each group consisted of 10 tumor-bearing mice. The testing article was administrated to the mice according to the predetermined regimen as shown in the experimental design Table 21 (prophylactic) and Table 22 (therapeutic).
The major endpoint was to see if the tumor growth could be delayed or mice could be cured. Tumor size was measured twice weekly in two dimensions using a caliper, and the volume was expressed in mm^3 using the formula: V=0.5 a×b^2 where a and b are the long and short diameters of the tumor, respectively. The tumor size was then used for calculations of both T-C and T/C values. T-C was calculated with T as the time (in days) required for the mean volume of treatment group tumors to reach 600 mm^3, and C as the time (in days) for the mean volume of control group tumors to reach the same size. The T/C value (in percent) is an indication of antitumor effectiveness; T and C are the mean volumes of the treated and control groups, respectively, on a given day.
ΔTGI was calculated for each group using the formula: ΔTGI (%)=[1−(Ti−T0)/(Vi−V0)]×100; Ti is the average tumor volume of a treatment group on a given day, T0 is the average tumor volume of the treatment group on the day of treatment start, Vi is the average tumor volume of the vehicle control group on the same day with Ti, and V0 is the average tumor volume of the vehicle group on the day of treatment start.
Tumor pictures were taken and tumor weight was measured at the study termination. T/Cweight value (in percent) was calculated using the formula: T/Cweight%=Tweight/Cweight×100% where Tweight and Cweight were the mean tumor weights of the treated and vehicle control groups, respectively.
Statistical analyses of differences in tumor volume and tumor weight among the groups were conducted on the data obtained when the average tumor volume of vehicle-therapeutic group reached 2,000 mm^3 (Day 71 after inoculation).
One-way ANOVA was performed to compare tumor volume and tumor weight among groups, and when a significant F-statistics (a ratio of treatment variance to the error variance) was obtained, comparisons between groups were carried out with Dunnett t-tests.

3T3-L1 adipocytes = experiment: Glucose uptake assay (2-deoxy-D-[3H]-glucose) in 3T3-L1 adipocytes; format: cell-based; details: for EC50: read-out: Insulin EC50
[3] = day 111 after the cell injection, positive control, treatment right after cell injection, of 6 mice
[4] = 2014 Aug. 27, insulin dose 0.01 nM
[5] = 2014 Aug. 27, insulin dose 0.03 nM
[6] = 2014 Aug. 27, insulin dose 0.09 nM
[7] = 2014 Aug. 27, insulin dose 0.27 nM
[8] = 2014 Aug. 27, insulin dose 7.41 nM
[9] = 2014 Aug. 27, insulin dose 22.2 nM
[10] = 2014 Aug. 27, insulin dose 66.7 nM
[11] = 2014 Aug. 27, insulin dose 200 nM
[12] = 2014 Aug. 28, insulin dose 0.27 nM
[13] = 2014 Aug. 28, insulin dose 2.47 nM
[14] = 2014 Aug. 28, insulin dose 7.41 nM
[15] = 2014 Aug. 28, insulin dose 22.2 nM
[16] = 2014 Aug. 28, insulin dose 66.7 nM
[17] = 2014 Aug. 28, insulin dose 200 nM
[18] = 2014 Jul. 11, insulin dose 0.82 nM
[19] = 2014 Jul. 11, insulin dose 7.41 nM
[20] = 2014 Jul. 11, insulin dose 22.22 nM
[21] = 2014 Jul. 11, insulin dose 66.67 nM
[22] = 2014 Jul. 11, insulin dose 200 nM
[23] = 2014 Jul. 14, insulin dose 0.09 nM
[24] = 2014 Jul. 14, insulin dose 0.82 nM
[25] = 2014 Jul. 14, insulin dose 2.47 nM
[26] = 2014 Jul. 14, insulin dose 7.41 nM
[27] = 2014 Jul. 14, insulin dose 22.2 nM
[28] = 2014 Jul. 14, insulin dose 66.7 nM
[29] = 2014 Jul. 14, insulin dose 200 nM
[30] = Insulin dose 0.09 nM, duplicates
[31] = Insulin dose 7.41 nM, duplicates
[32] = Insulin dose 22.2 nM, duplicates
[33] = Insulin dose 66.7 nM, duplicates
[34] = Insulin dose 200 nM, duplicates

O=P1(N(CCCl)CCCl)NCCCO1 (stereo not shown) [Cyclophosphamide]
survival until day 150 (Molt-4-luc leukemia; all mice of the group): died | median relative bioluminescence (Molt-4-luc leukemia; day 50 after cell implantation, treatment given right after cell injection (therapeutic / positive control group), vehicle 153.43): 1.40 | Animals # with bioluminescence signal (Molt-4-luc leukemia; [3]): 1 | Survival animals # (Molt-4-luc leukemia; [3]): 5 | survival of mice (Molt-4-luc leukemia; day 111 after the cell injection, six mice per group, vehicle: two mice died): one mouse died | day at which one mouse died (Molt-4-luc leukemia; mouse, in vivo): 57 days

CC(=O)O[C@H]1C(=O)[C@@]2(C)[C@H]([C@H](OC(=O)c3ccccc3)[C@]3(O)C[C@H](OC(=O)[C@H](O)[C@@H](NC(=O)c4ccccc4)c4ccccc4)C(C)=C1C3(C)C)[C@]1(OC(C)=O)CO[C@@H]1C[C@@H]2O [Paclitaxel]
mortality ([1]; Group 6, days after the start of therapeutic treatment, possibly due to drug toxicity): died on day 20 and day 63 | BWL > 20% ([1]; mouse, in vivo): 0 | Subtotal mice# lost/N ([1]; therapeutic arm): 2/10 | mortality ([1]; therapeutic arm, number of animals, n=10): 2^a (D20, 63)^b | Tumor Size at day 71 ([2]; therapeutic arm, Mean ± SEM at day 71 after inoculation): 637 ± 211 mm^3 | Tumor Weight at day 78 ([2]; therapeutic arm, Mean ± SEM at day 78 after inoculation): 0.67 ± 0.23 g | ΔTGI ([2]; therapeutic arm, day 71): 71% | T-C at 600 mm^3 ([2]; therapeutic arm, tumor growth delay at tumor size 600 mm^3): 23 days | T/C ([2]; therapeutic arm, tumor volume at day 71 vs vehicle-therapeutic): 31% | T/Cweight ([2]; therapeutic arm, tumor weight at day 78 vs vehicle-therapeutic): 39.6% | antitumor activity ([2]; therapeutic arms): statistically significant antitumor activity | tumor growth delay at tumor size of 600 mm^3 ([2]; therapeutic arms, compared with the vehicle group): 23 days | T/C value ([2]; therapeutic arms, day 71): 31% | mean tumor size ([2]; therapeutic arms, day 71 after tumor inoculation, vehicle 2,025, Paclitaxel 1.5 mg/kg, BIW×9 weeks): 637 mm^3

Insulin
% Activity (3T3-L1 adipocytes; [4]): 5% and 6% | Count (3T3-L1 adipocytes; [4]): 2169 and 2178 | % Activity (3T3-L1 adipocytes; [5]): −8% and −12% | Count (3T3-L1 adipocytes; [5]): 2065 and 2030 | % Activity (3T3-L1 adipocytes; [6]): 6% and 4% | Count (3T3-L1 adipocytes; [6]): 2177 and 2166 | % Activity (3T3-L1 adipocytes; [7]): 2% and −7% | Count (3T3-L1 adipocytes; [7]): 2145 and 2075 | Count (3T3-L1 adipocytes; 2014 Aug. 27, insulin dose 0.82 nM): 2390 and 2146 | Count (3T3-L1 adipocytes; 2014 Aug. 27, insulin dose 2.47 nM): 2131 and 2284 | % Activity (3T3-L1 adipocytes; [8]): 54% and 42% | Count (3T3-L1 adipocytes; [8]): 2579 and 2483 | % Activity (3T3-L1 adipocytes; [9]): 53% and 61% | Count (3T3-L1 adipocytes; [9]): 2573 and 2636 | % Activity (3T3-L1 adipocytes; [10]): 90% and 93% | Count (3T3-L1 adipocytes; [10]): 2877 and 2903 | % Activity (3T3-L1 adipocytes; [11]): 52% and 59% | Count (3T3-L1 adipocytes; [11]): 2565 and 2617 | Count (3T3-L1 adipocytes; 2014 Aug. 28, insulin dose 0.01 nM): 1918 and 2052 | Count (3T3-L1 adipocytes; 2014 Aug. 28, insulin dose 0.03 nM): 2281 and 2003 | Count (3T3-L1 adipocytes; 2014 Aug. 28, insulin dose 0.09 nM): 2130 and 2378 | % Activity (3T3-L1 adipocytes; [12]): 19% and 24% | Count (3T3-L1 adipocytes; [12]): 2258 and 2306 | Count (3T3-L1 adipocytes; 2014 Aug. 28, insulin dose 0.82 nM): 2111 and 2261 | % Activity (3T3-L1 adipocytes; [13]): 13% and 22% | Count (3T3-L1 adipocytes; [13]): 2208 and 2286 | % Activity (3T3-L1 adipocytes; [14]): 39% and 41% | Count (3T3-L1 adipocytes; [14]): 2427 and 2442 | % Activity (3T3-L1 adipocytes; [15]): 84% and 48% | Count (3T3-L1 adipocytes; [15]): 2812 and 2503 | % Activity (3T3-L1 adipocytes; [16]): 75% and 85% | Count (3T3-L1 adipocytes; [16]): 2736 and 2827 | % Activity (3T3-L1 adipocytes; [17]): 85% and 56% | Count (3T3-L1 adipocytes; [17]): 2813 and 2574 | Count (3T3-L1 adipocytes; 2014 Jul. 11, insulin dose 0.09 nM): 760 and 587 | Count (3T3-L1 adipocytes; 2014 Jul. 11, insulin dose 0.27 nM): 709 and 761 | % Activity (3T3-L1 adipocytes; [18]): 28% and 17% | Count (3T3-L1 adipocytes; [18]): 800 and 746 | Count (3T3-L1 adipocytes; 2014 Jul. 11, insulin dose 2.47 nM): 736 and 828 | % Activity (3T3-L1 adipocytes; [19]): 47% and 70% | Count (3T3-L1 adipocytes; [19]): 884 and 992 | % Activity (3T3-L1 adipocytes; [20]): 47% and 72% | Count (3T3-L1 adipocytes; [20]): 887 and 1000 | % Activity (3T3-L1 adipocytes; [21]): 68% and 72% | Count (3T3-L1 adipocytes; [21]): 979 and 1000 | % Activity (3T3-L1 adipocytes; [22]): 68% and 70% | Count (3T3-L1 adipocytes; [22]): 980 and 989 | % Activity (3T3-L1 adipocytes; [23]): 3% and 11% | Count (3T3-L1 adipocytes; [23]): 1033 and 1075 | Count (3T3-L1 adipocytes; 2014 Jul. 14, insulin dose 0.27 nM): 1118 and 1018 | % Activity (3T3-L1 adipocytes; [24]): 12% | Count (3T3-L1 adipocytes; [24]): 1082 and 1083 | % Activity (3T3-L1 adipocytes; [25]): 55% and 32% | Count (3T3-L1 adipocytes; [25]): 1317 and 1191 | % Activity (3T3-L1 adipocytes; [26]): 59% and 41% | Count (3T3-L1 adipocytes; [26]): 1335 and 1238 | % Activity (3T3-L1 adipocytes; [27]): 61% and 63% | Count (3T3-L1 adipocytes; [27]): 1347 and 1362 | % Activity (3T3-L1 adipocytes; [28]): 64% and 42% | Count (3T3-L1 adipocytes; [28]): 1364 and 1243 | % Activity (3T3-L1 adipocytes; [29]): 97% and 106% | Count (3T3-L1 adipocytes; [29]): 1545 and 1591 | Count (3T3-L1 adipocytes; Insulin dose 0.03 nM, duplicates): 2039 and 1067 | % Activity (3T3-L1 adipocytes; [30]): −3% and −4% | Count (3T3-L1 adipocytes; [30]): 2101 and 2091 | Count (3T3-L1 adipocytes; Insulin dose 0.27 nM, duplicates): 2196 and 2340 | Count (3T3-L1 adipocytes; Insulin dose 0.82 nM, duplicates): 2069 and 2263 | % Activity (3T3-L1 adipocytes; [31]): 31% and 39% | Count (3T3-L1 adipocytes; [31]): 2395 and 2466 | % Activity (3T3-L1 adipocytes; [32]): 58% and 63% | Count (3T3-L1 adipocytes; [32]): 2633 and 2673 | % Activity (3T3-L1 adipocytes; [33]): 70% and 61% | Count (3T3-L1 adipocytes; [33]): 2736 and 2660 | % Activity (3T3-L1 adipocytes; [34]): 80% and 62% | Count (3T3-L1 adipocytes; [34]): 2820 and 2663 | EC50 (3T3-L1 adipocytes; run of 2014 Aug. 27): 2.54 nM | EC50 (3T3-L1 adipocytes; run of 2014 Aug. 28): 6.94 nM | EC50 (3T3-L1 adipocytes; run of 2014 Aug. 29): 6.66 nM | EC50 (3T3-L1 adipocytes; run of 2014 Jul. 11): 3.96 nM | EC50 (3T3-L1 adipocytes; run of 2014 Jul. 14): 2.46 nM
